Source: the NIST ThermoML archive (doi:10.1021/acs.jced.7b00347)

Assay: mn = molality of the nth substance listed, in mol/kg
Settings: for surface tension liquid-gas: Ring tensiometer; for electrical conductivity: 100 kPa, Liquid, Alternating current cell with electrodes

CCCCCCCCCCCCCCCC[NH+](CCO)CC(C)O.[Cl-] (configuration not stated) + O
Settings | electrical conductivity [S/m] | surface tension liquid-gas [mN/m]
293.15 K, m1 = 1.052e-05 | – | 59.82
293.15 K, m1 = 1.579e-05 | – | 56.69
293.15 K, m1 = 2.631e-05 | – | 52.01
293.15 K, m1 = 5.263e-05 | – | 45.56
293.15 K, m1 = 0.0001052 | – | 39.23
293.15 K, m1 = 0.0001263 | 0.000446 | –
293.15 K, m1 = 0.0001316 | 0.000471 | –
293.15 K, m1 = 0.0001368 | 0.000496 | –
293.15 K, m1 = 0.0001421 | 0.000522 | –
293.15 K, m1 = 0.0001473 | 0.000548 | –
293.15 K, m1 = 0.0001526 | 0.000573 | –
293.15 K, m1 = 0.0001579 | 0.000595 | 35.88
293.15 K, m1 = 0.000171 | 0.00061 | –
293.15 K, m1 = 0.0001842 | 0.000621 | –
293.15 K, m1 = 0.0001973 | 0.000633 | –
293.15 K, m1 = 0.0002105 | 0.000644 | 34.88
293.15 K, m1 = 0.0002236 | 0.000655 | –
293.15 K, m1 = 0.0002368 | 0.000667 | –
293.15 K, m1 = 0.00025 | 0.000678 | –
293.15 K, m1 = 0.0002631 | 0.000689 | 34.06
293.15 K, m1 = 0.0002763 | 0.000701 | –
293.15 K, m1 = 0.0002894 | 0.000712 | –
293.15 K, m1 = 0.0003026 | 0.000723 | –
293.15 K, m1 = 0.0003157 | 0.000737 | –
293.15 K, m1 = 0.0005262 | – | 32.43
293.15 K, m1 = 0.001053 | – | 31.43
293.15 K, m1 = 0.001579 | – | 31.07
298.15 K, m1 = 7.893e-06 | – | 56.32
298.15 K, m1 = 1.052e-05 | – | 54.11
298.15 K, m1 = 1.579e-05 | – | 50.72
298.15 K, m1 = 2.631e-05 | – | 46.33
298.15 K, m1 = 5.263e-05 | – | 40.82
298.15 K, m1 = 9.47e-05 | 0.000409 | –
298.15 K, m1 = 0.0001016 | 0.000433 | –
298.15 K, m1 = 0.0001052 | – | 35.11
298.15 K, m1 = 0.0001085 | 0.000458 | –
298.15 K, m1 = 0.0001154 | 0.000482 | –
298.15 K, m1 = 0.0001223 | 0.000507 | –
298.15 K, m1 = 0.0001293 | 0.000531 | –
298.15 K, m1 = 0.0001362 | 0.000556 | –
298.15 K, m1 = 0.0001431 | 0.000581 | –
298.15 K, m1 = 0.00015 | 0.000606 | 32.52
298.15 K, m1 = 0.0001618 | 0.000621 | –
298.15 K, m1 = 0.0001737 | 0.000637 | –
298.15 K, m1 = 0.0001855 | 0.000653 | –
298.15 K, m1 = 0.0001973 | 0.000669 | –
298.15 K, m1 = 0.0002092 | 0.000684 | –
298.15 K, m1 = 0.0002105 | – | 31.91
298.15 K, m1 = 0.000221 | 0.0007 | –
298.15 K, m1 = 0.0002329 | 0.000716 | –
298.15 K, m1 = 0.0002447 | 0.000732 | –
298.15 K, m1 = 0.0002565 | 0.000748 | –
298.15 K, m1 = 0.0002631 | – | 31.41
298.15 K, m1 = 0.0002684 | 0.000764 | –
298.15 K, m1 = 0.0002802 | 0.00078 | –
298.15 K, m1 = 0.0002921 | 0.000796 | –
298.15 K, m1 = 0.0003039 | 0.000811 | –
298.15 K, m1 = 0.0003157 | 0.000829 | –
298.15 K, m1 = 0.0005262 | – | 30.8
298.15 K, m1 = 0.001053 | – | 30.03
298.15 K, m1 = 0.001579 | – | 29.71
303.15 K, m1 = 6.578e-06 | – | 52.23
303.15 K, m1 = 7.893e-06 | – | 50.81
303.15 K, m1 = 1.052e-05 | – | 48.55
303.15 K, m1 = 1.579e-05 | – | 45.89
303.15 K, m1 = 2.631e-05 | – | 42.23
303.15 K, m1 = 5.263e-05 | – | 37.06
303.15 K, m1 = 9.47e-05 | 0.000467 | –
303.15 K, m1 = 9.9e-05 | 0.000486 | –
303.15 K, m1 = 0.0001033 | 0.000505 | –
303.15 K, m1 = 0.0001052 | – | 32.07
303.15 K, m1 = 0.0001075 | 0.000524 | –
303.15 K, m1 = 0.0001118 | 0.000544 | –
303.15 K, m1 = 0.0001161 | 0.000563 | –
303.15 K, m1 = 0.0001204 | 0.000582 | –
303.15 K, m1 = 0.0001247 | 0.000601 | –
303.15 K, m1 = 0.0001289 | 0.000621 | –
303.15 K, m1 = 0.0001315 | – | 31.01
303.15 K, m1 = 0.0001423 | 0.000643 | –
303.15 K, m1 = 0.0001556 | 0.000666 | –
303.15 K, m1 = 0.0001579 | – | 30.51
303.15 K, m1 = 0.000169 | 0.000689 | –
303.15 K, m1 = 0.0001823 | 0.000712 | –
303.15 K, m1 = 0.0001956 | 0.000735 | –
303.15 K, m1 = 0.000209 | 0.000757 | –
303.15 K, m1 = 0.0002105 | – | 30.45
303.15 K, m1 = 0.0002223 | 0.00078 | –
303.15 K, m1 = 0.0002357 | 0.000803 | –
303.15 K, m1 = 0.000249 | 0.000826 | –
303.15 K, m1 = 0.0002624 | 0.000849 | –
303.15 K, m1 = 0.0002631 | – | 30.43
303.15 K, m1 = 0.0002757 | 0.000872 | –
303.15 K, m1 = 0.0002891 | 0.000895 | –
303.15 K, m1 = 0.0003024 | 0.000918 | –
303.15 K, m1 = 0.0003157 | 0.000944 | –
303.15 K, m1 = 0.0005262 | – | 29.89
303.15 K, m1 = 0.001053 | – | 29.16
303.15 K, m1 = 0.001579 | – | 28.81
308.15 K, m1 = 4.604e-06 | – | 52.01
308.15 K, m1 = 7.893e-06 | – | 48.13
308.15 K, m1 = 1.052e-05 | – | 46
308.15 K, m1 = 1.579e-05 | – | 43.23
308.15 K, m1 = 2.631e-05 | – | 39.78
308.15 K, m1 = 5.263e-05 | – | 35.06
308.15 K, m1 = 7.37e-05 | 0.000445 | –
308.15 K, m1 = 8.04e-05 | 0.000472 | –
308.15 K, m1 = 8.72e-05 | 0.0005 | –
308.15 K, m1 = 9.4e-05 | 0.000528 | –
308.15 K, m1 = 0.0001007 | 0.000556 | –
308.15 K, m1 = 0.0001075 | 0.000583 | –
308.15 K, m1 = 0.0001143 | 0.000611 | –
308.15 K, m1 = 0.000121 | 0.00064 | 29.71
308.15 K, m1 = 0.00013 | 0.000659 | –
308.15 K, m1 = 0.0001389 | 0.000679 | –
308.15 K, m1 = 0.0001479 | 0.000699 | –
308.15 K, m1 = 0.0001568 | 0.000719 | –
308.15 K, m1 = 0.0001579 | – | 29.44
308.15 K, m1 = 0.0001658 | 0.000739 | –
308.15 K, m1 = 0.0001747 | 0.000759 | –
308.15 K, m1 = 0.0001837 | 0.000778 | –
308.15 K, m1 = 0.0001926 | 0.000798 | –
308.15 K, m1 = 0.0002015 | 0.000818 | –
308.15 K, m1 = 0.0002105 | 0.000839 | 29.16
308.15 K, m1 = 0.0002194 | 0.000858 | –
308.15 K, m1 = 0.0002284 | 0.000878 | –
308.15 K, m1 = 0.0002373 | 0.000898 | –
308.15 K, m1 = 0.0002463 | 0.000917 | –
308.15 K, m1 = 0.0002552 | 0.000937 | –
308.15 K, m1 = 0.0002631 | – | 29.02
308.15 K, m1 = 0.0002642 | 0.000957 | –
308.15 K, m1 = 0.0002731 | 0.000977 | –
308.15 K, m1 = 0.0002821 | 0.000997 | –
308.15 K, m1 = 0.000291 | 0.00102 | –
308.15 K, m1 = 0.0005262 | – | 28.71
308.15 K, m1 = 0.001053 | – | 28.26
308.15 K, m1 = 0.001579 | – | 28.07
